Source: patent publication US11352350B2, “IRAK degraders and uses thereof” (Kymera Therapeutics, Inc., priority 2018, dated 2022)
Like-named read-outs stand apart in the source and are kept apart here.

What was measured:
IRAK4 = IRAK4 (Homo sapiens (Human), UniProt Q9NWZ3); experiment: IRAK4 MSD degradation in OCI-LY10; assay type: cell-based
Procedure, shortened: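 OCI-LY10 cells treated with 8-point 1:3 dilutions (top 1 to 10 μM final) for 4 to 24 h at 37° C. Lysate IRAK4 measured by MSD sandwich immunoassay (2H9 capture, Y279 detection, SULFO-TAG anti-rabbit). DC50 from three-parameter logistic fit.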

OCI-LY10 = experiment: CTG Cell Viability Assay - OCI-LY10; assay type: cell-based, human; conditions: Homo sapiens, OCI-Ly10, 96 h, OCI-LY10, 4 days; read-out: CTG Cell Viability Assay - OCI-LY10: Average external-IC50
Procedure, shortened: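 OCI-LY10 cells exposed to 9-dose, 1:3 dilutions from 10 μM top (0.2% DMSO) for 4 days at 37° C, 5% CO2. Viability by CellTiter-Glo luminescence; IC50 from three-parameter logistic fit.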

[1] = OCI-LY10, 4 hrs, MSD, read-out: IRAK4 MSD degradation in OCI-LY10 at 4 hrs: Average external-Abs DC50
[2] = OCI-LY10, 24 hrs, MSD, read-out: IRAK4 MSD degradation in OCI-LY10 at 24 hrs: Average external-Abs DC50
[3] = OCI-LY10, 4 hrs, read-out: IRAK4 MSD degradation in OCI-LY10 at 4 hrs: DC50
[4] = OCI-LY10, 24 hrs, read-out: IRAK4 MSD degradation in OCI-LY10 at 24 hrs: DC50

Chain of IRAK4 (Q9NWZ3 whole entry): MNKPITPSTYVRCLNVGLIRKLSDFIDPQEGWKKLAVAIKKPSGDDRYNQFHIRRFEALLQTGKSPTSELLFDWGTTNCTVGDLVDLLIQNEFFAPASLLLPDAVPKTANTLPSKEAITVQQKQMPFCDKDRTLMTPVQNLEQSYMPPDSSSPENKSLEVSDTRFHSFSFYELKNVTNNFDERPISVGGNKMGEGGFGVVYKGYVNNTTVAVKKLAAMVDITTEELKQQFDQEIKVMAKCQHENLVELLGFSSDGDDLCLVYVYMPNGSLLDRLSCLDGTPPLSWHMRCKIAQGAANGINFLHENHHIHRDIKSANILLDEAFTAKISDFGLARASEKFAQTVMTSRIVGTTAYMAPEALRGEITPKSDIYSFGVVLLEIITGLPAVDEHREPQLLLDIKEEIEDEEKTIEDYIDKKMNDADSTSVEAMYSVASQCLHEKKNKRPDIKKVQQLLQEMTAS

SMILES	DC50 (IRAK4; [1]) [µM]	IC50 (OCI-LY10) [µM]	DC50 (IRAK4; [2]) [µM]	DC50 (IRAK4; [3]) [µM]	DC50 (IRAK4; [4]) [µM]
C[C@@H]1CN(c2ccn3ncc(C(=O)Nc4cn([C@H]5CC[C@H](CN6CCC(OCCCc7cccc8c7n(C)c(=O)n8C7CCC(=O)NC7=O)CC6)CC5)nc4C(F)F)c3n2)C[C@H](C)O1 (stereo partly drawn) [I-275, N-[3-(difluoromethyl)-1-[4-[[4-[3-[1-(2,6-dioxo-3-piperidyl)-3-methyl-2-oxo-benzimidazol-4-yl]propoxy]-1-piperidyl]methyl]cyclohexyl]pyrazol-4-yl]-5-[(2R,6S)-2,6-dimethylmorpholin-4-yl] pyrazolo[1,5-a] pyrimidine-3-carboxamide]	0.01 to 0.1	> 1			
CN(CCCOCCCNc1cccc2c1C(=O)N(C1CCC(=O)NC1=O)C2=O)C[C@H]1CC[C@H](n2cc(NC(=O)c3coc(-c4ccnc(N5CCOCC5)c4)n3)c(C(F)F)n2)CC1 (some centres unmarked) [I-397]	0.1 to 1	0.05 to 0.1	0.1 to 1		
Cc1ccc(-n2nc(C3CCN(C(=O)CCCCOCCCc4cccc5c4n(C)c(=O)n5C4CCC(=O)NC4=O)CC3)cc2NC(=O)c2cnn3cccnc23)nc1 (centres unmarked) [I-160]	> 1	> 1	> 1		
O=C1CCC(N2C(=O)c3cccc(NCCC4CCN(C[C@H]5CC[C@H](n6cc(NC(=O)c7cnn8ccc(N9CCOCC9)nc78)c(C(F)F)n6)CC5)CC4)c3C2=O)C(=O)N1 (some centres unmarked) [I-365]	0.01 to 0.1	< 0.05			
C[C@@H]1CN(c2ccn3ncc(C(=O)Nc4cn([C@H]5CC[C@H](CN6CCC(OCCCc7cccc8c7n(C)c(=O)n8C7CCC(=O)NC7=O)CC6)CC5)nc4C(F)F)c3n2)C[C@@H](C)O1 (some centres unmarked) [I-276]	< 0.01	> 1			
CN1C(=O)CCC(N2Cc3c(OCc4ccc(CN5CCN(C[C@H]6CC[C@H](n7cc(NC(=O)c8cnn9ccc(N%10CCOCC%10)nc89)c(C(F)F)n7)CC6)CC5)cc4)cccc3C2=O)C1=O (some centres unmarked) [I-322]	0.1 to 1	> 1	> 1		
Cc1ccc(-n2nc(C3CCN(CCCCCOCCCc4cccc5c4n(C)c(=O)n5C4CCC(=O)NC4=O)CC3)cc2NC(=O)c2cnn3cccnc23)nc1 (centres unmarked) [I-272]	> 1	> 1	> 1		
Cn1c(=O)n(C2CCC(=O)NC2=O)c2cccc(CCCOC3CCN(C(=O)[C@H]4CC[C@H](n5cc(NC(=O)c6cnn7ccc(N8CCOCC8)nc67)c(C(F)F)n5)CC4)CC3)c21 (some centres unmarked) [I-149]	< 0.01	> 1			
Cn1c(=O)n(C2CCC(=O)NC2=O)c2cccc(CCCOC3CCN(C[C@H]4CC[C@H](n5cc(NC(=O)c6cnn7ccc(N8CCOCC8)nc67)c(C(C)(C)O)n5)CC4)CC3)c21 (some centres unmarked) [I-216]	0.1 to 1	> 1			
CN(Cc1ccc(CCNc2cccc3c2C(=O)N(C2CCC(=O)NC2=O)C3=O)cc1)C[C@H]1CC[C@H](n2cc(NC(=O)c3cnn4ccc(N5CCOCC5)nc34)c(C(F)F)n2)CC1 (some centres unmarked) [I-325]	0.1 to 1	> 1	0.01 to 0.1		
Cn1c(=O)n(C2CCC(=O)NC2=O)c2ccc(CN3CCN(C[C@H]4CC[C@H](n5cc(NC(=O)c6coc(-c7ccnc(NCC8CC8)c7)n6)c(C(F)F)n5)CC4)CC3)cc21 (some centres unmarked) [I-243]	< 0.01	> 1			
CN1C(=O)C(C2CCC(=O)NC2=O)c2cccc(CCCOC3CCN(C[C@H]4CC[C@H](n5cc(NC(=O)c6cnn7ccc(N8CC9(COC9)C8)nc67)c(C(F)F)n5)CC4)CC3)c21 (some centres unmarked) [I-287]	< 0.01	> 1			
O=C1CCC(N2C(=O)c3cccc(N[C@H]4C[C@H](OC5CCN(C[C@H]6CC[C@H](n7cc(NC(=O)c8cnn9ccc(N%10CCOCC%10)nc89)c(C(F)F)n7)CC6)CC5)C4)c3C2=O)C(=O)N1 (some centres unmarked) [I-506]		0.5 to 1		0.01 to 0.1	< 0.01
O=C1CCC(N2C(=O)c3cccc(NCCCOCCCN4CCC(n5cc(NC(=O)c6cnn7ccc(N8CCOCC8)nc67)c(C(F)F)n5)CC4)c3C2=O)C(=O)N1 (centres unmarked) [I-226]	0.1 to 1	< 0.05	0.01 to 0.1		
O=C1CCC(N2C(=O)c3cccc(NCCOCCCN4CCN(c5ncc(-n6cc(NC(=O)c7cnn8ccc(N9C[C@H]%10C[C@@H]9CO%10)nc78)c(C(F)F)n6)cn5)CC4)c3C2=O)C(=O)N1 (some centres unmarked) [I-474]		< 0.05		0.1 to 1	0.01 to 0.1
